Reference: patent US12186332B2, “Methods for overcoming WNT/beta-catenin anti-cancer resistance in leukemia stem cells” (STOWERS INSTITUTE FOR MEDICAL RESEARCH, priority 2019, dated 2025)

Columns and labels:
[1] = system: patient BM with or without chemoresistant pS^552-β-cat^+ LSCs; experiment: 2° PDX recipients treated with low-dose DXR ([Low]nanoDXR); format: in vivo, human
Experimental: (§1) FIG. 12F is the Kaplan-Meier survival curve for 2° PDX recipients treated with vehicle or [Low]nanoDXR. Bone marrow was harvested from 1° recipients of diagnostic BM, transplanted into a larger set of 2° PDX recipients and treated with [Low] NanoDXR starting at day 14 post-transplant and continuing for up to 10 weeks.
as §1, with “12G” for “12F”, “post-chemotherapy” for “diagnostic”
Human CD45^+ and human LSC engraftment was determined after succumbing to leukemia or at experimental endpoint. Graphs indicate frequency (%)+Std. Dev.
as §1, with “12L” for “12F”, “BM (FIG. 12D),” for “BM,”
as §1, with “12M” for “12F”, “BM (FIG. 12E),” for “BM,”
Human CD45^+ and human LSC engraftment was determined after succumbing to leukemia or at experimental endpoint. Graphs indicate frequency (%)+Std. Dev. (N.S.=not significant).
All patient samples were obtained under research ethics board approval with informed consent. Pediatric patient BM was transplanted into NSG mice. When 1° transplant mice succumbed to leukemia, bone marrow was harvested, frozen for later use, and transplanted into a larger set of 2° NSG recipients. […] Health was monitored independently by technicians blinded to any hypothetical outcome. […]

[2] = system: immune checkpoint (IC) and Wnt target gene loci; experiment: ATAC-seq chromatin accessibility in LSCs and blast cells; format: in vivo, mouse; details: [Low]DXR
Description: Inhibitory IC gene loci are highlighted (blue dots).
Cells were sorted from BM pooled from 20 leukemia mice treated with [Low]DXR and 8 leukemia mice treated with vehicle control at 15-30 k/replicate.
FIG. 4M is metagene analysis of LSCs showing chromatin accessibility near the transcriptional start site (TSS) in immune-checkpoint gene loci (listed) compared with all loci showing significant changes. Gene synonyms are listed here in parentheses Hvem (Tnfrsf14), Gal-9 (Lgals9), Ox401 (Tnfsf4), Tnfsf7 (Cd70), B7-H2 (Icosl), B7-H3 (Cd276), B7-H4 (Vtcn1), Pd1 (Pdcd1), Tnfrsf7 (Cd27), Tim3 (Havcr2), Ox40 (Tnfrsf4).
Cells were sorted from BM pooled from 20 leukemia mice treated with [Low]DXR and 8 leukemia mice treated with vehicle control. Experiment was repeated 1 time with similar results.
ATAC-seq was performed in LSCs and blast cells following the protocol described in Buenrostro et al., ATAC-seq: A Method for Assaying Chromatin Accessibility Genome-Wide. Curr Protoc Mol Biol. 2015 Jan. 5,109:21.29.1-9, the entirety of which is incorporated herein by reference. Cells were sorted from BM pooled from 20 leukemia mice treated with [Low]DXR and 8 leukemia mice treated with vehicle control at 15-30 k/replicate.
Collected cells were subject to transposition reaction and purification. In brief, 30,000 FACS-sorted blast cells were washed using 50 μl cold 1×PBS and centrifuged at 500 g for 5 min in a pre-chilled (4° C.) fixed-angle centrifuge. Cells were lysed using cold lysis buffer (10 mM Tris-HCl, pH 7.4, 10 mM NaCl, 3 mM MgCl2 and 0.1% IGEPAL CA-630). Following the lysis, the pellet was resuspended in the transposase reaction mix. The transposition reaction mix contains 25 μl TD (2× reaction buffer), 2.5 μl TDE1 (Nextera Tn5 Transposase) and 22.5 μl Nuclease Free H2O. Resuspended nuclei in the transposition reaction mix. Incubated the transposition reaction at 37° C. for 30 min. Immediately following transposition, purification was performed by using a Qiagen MinElute PCR Purification Kit. Eluted transposed DNA in 10 μl Elution Buffer (10 mM Tris buffer, pH 8). Transposed DNA fragments were amplified by PCR. The PCR mixture contains 10 μl transposed DNA, 10 μl Nuclease Free H2O, 2.5 μl 25 μM Custom Nextera PCR Primer 1, 2.5 μl 25 μM Custom Nextera PCR Primer 2 (Contains Barcode) and 25 μl NEBNext High-Fidelity 2×PCR Master Mix. The thermal cycle is as follows: 1 cycle of 72° C. for 5 min, 98° C. for 30 sec, 5 cycles of 98° C. for 10 sec, 63° C. for 30 sec, 72° C. for 1 min. To reduce GC and size bias in PCR, the appropriate number of PCR cycles is determined using qPCR. To run a qPCR side reaction, combine the following in qPCR compatible consumables: 5 μl of previously PCR amplified DNA, 4.41 μl Nuclease Free H2O, 0.25 μl 25 μM Customized Nextera PCR Primer 1, 0.25 μl 25 μM Customized Nextera PCR Primer 2, 0.09 μl 100×SYBR Green I, 5 μl NEBNext High-Fidelity 2×PCR Master Mix. Using a qPCR instrument, cycle as follows: 1 cycle of 98° C. for 30 sec, 20 cycles of 98° C. for 10 sec, 63° C. for 30 sec, 72° C. for 1 min. To calculate the additional number of cycles needed, plot linear Rn versus cycle and determine the cycle number that corresponds to […] fluorescent intensity. Run the remaining 45 μl PCR reaction to the cycle number determined by qPCR. Cycle as follows: 1 cycle of 98° C. for 30 sec, N cycles (determined using qPCR) of 98° C. for 10 sec, 63° C. for 30 sec, 72° C. for 1 min.

[3] = system: human T-ALL blasts and pS^552-β-cat^+ LSCs; experiment: Patient-derived xenografts of MRD+ pediatric T-ALL treated with [Low]DXR; format: in vivo; details: [Low]DXR 5 days, two weeks after transplantation; Pt 057, Pt 062
Description: Shown is T-ALL blasts (CD45^+ c-Kit^−ve CD3^+) in Pt 057. Graphs indicate frequency of human CD45^+ cells (%)+SD.
Graphs indicate frequency of human CD45^+ cells (%)±SD.

[4] = Pt samples containing chemoresistant pS552-β-cat+ LSCs

With `COc1cccc2c1C(=O)c1c(O)c3c(c(O)c1C2=O)C[C@@](O)(C(=O)CO)C[C@@H]3O[C@H]1C[C@H](N)[C@H](O)[C@H](C)O1` [DXR, doxorubicin] the “leukemia engraftment and LSC frequency compared to vehicle control” value [1, 4] was “reduced leukemia engraftment and LSC frequency”, the “survival compared to vehicle control” value [1, 4] was “significantly improved survival” and the “survival, leukemia engraftment or LSC frequency” value ([1]; Pt samples lacking chemoresistant pS552-β-cat+ LSCs) was “no significant difference”. The “IC loci with increased accessibility” value ([2]; LSCs) was 3 loci, the “IC loci with reduced accessibility” value ([2]; LSCs) was 13 loci and the “IC loci with increased accessibility” value ([2]; blast cells) was 10. For the same compound, the “IC loci with reduced accessibility” value ([2]; blast cells) was 4, the “accessibility in the promoter regions of Wnt target genes in LSCs” value ([2]; not in blast cells) was “reduced” and the “engraftment of bulk blast cells” value [3] was “not significantly changed”. The “pS552-β-cat+ LSCs” value [3] was “significantly reduced”.
